Source: publication PMC4203769, “The “Genomic Storm” Induced by Bacterial Endotoxin Is Calmed by a Nuclear Transport Modifier That Attenuates Localized and Systemic Inflammation” (PLoS ONE, 2014)
Values joined by “and” are separate entries in the source; they are usually repeats but may differ in a detail not shown here. Equal entries are not always repeated. “Also recorded” adds a separate entry of the source. Positions of bridges follow the written chain, without caps; N, C: chain ends. Residues, ends and D or L forms follow the SMILES beside them.

Assays:
[1] = Solubility of peptides in water; format: physicochemical
From the text: A fragment-linked peptide strategy to analyze signal-dependent nuclear transport is based on fusing a motif from the nuclear localization sequence (NLS) region of the NF-κB1/p50 subunit with the signal sequence hydrophobic region (SSHR) of human fibroblast growth factor 4 [7], [19]. NLS- and SSHR-containing NTMs (SN50, cSN50 and cSN50.1; see Table 1 for their composition and solubility) were designed to function at the nuclear transport level by binding to importins α during stimulus-initiated signaling and thereby modulate nuclear import of NLS-bearing SRTFs. The SSHR motif allows peptides to cross the plasma membrane of cells in culture or in experimental animals through an ATP- and endosome-independent mechanism. […] The functional utility of NTMs has been reported in numerous preclinical models of inflammation caused by microbial and autoimmune insults, [21]–[26].

[2] = test system: primary macrophages challenged with LPS; assay: Cell viability of LPS-challenged primary macrophages; format: cell-based, mouse (C57BL/6); conditions: LPS-challenged BMDMs, 30 µM peptide; data not shown; listed as NTM
[3] = test system: mouse blood cells and organs; conditions: after i.p. injection; receptor- and endocytosis-independent mechanism; cited from earlier work
Method: NTM is rapidly delivered (within 30–60 min after i.p. injection) through a receptor-and endocytosis-independent mechanism to mouse blood cells and organs where it reaches sufficient intracellular concentration to engender localized (lung) and systemic (endotoxic shock) anti-inflammatory effects. Thus, the microvascular compartment of multiple organs that are vulnerable to LPS toxicity (e.g. lungs, liver, and kidneys) can be protected, [22]. Unlike anti-inflammatory glucocorticosteroids which produced discordant results in sepsis clinical trials, [33] and have potential ...

CSCC[C@@H]1NC(=O)[C@H](CC(C)C)NC(=O)[C@H](CCCCN)NC(=O)[C@H](CCC(N)=O)NC(=O)[C@H](CCCNC(=N)N)NC(=O)[C@H](CCCCN)NC(=O)[C@H](CCCNC(=N)N)NC(=O)[C@H](CCC(N)=O)NC(=O)[C@H](C(C)C)NC(=O)[C@@H](NC(=O)[C@@H]2CCCN2C(=O)[C@H](C)NC(=O)[C@H](CC(C)C)NC(=O)[C@H](CC(C)C)NC(=O)[C@H](C)NC(=O)[C@H](CC(C)C)NC(=O)[C@H](CC(C)C)NC(=O)[C@@H](NC(=O)[C@H](C)NC(=O)[C@@H]2CCCN2C(=O)[C@H](CC(C)C)NC(=O)[C@H](CC(C)C)NC(=O)[C@H](C)NC(=O)[C@@H](NC(=O)[C@H](C)NC(=O)[C@H](C)N)C(C)C)C(C)C)CSSC[C@@H](C(=O)O)NC(=O)[C@@H]2CCCN2C1=O [cSN50.1] (H-AAVALLPAVLLALLAPCVQRKRQKLMPC-OH; disulfide 17-28)
Solubility in Water [1]: 100 mg/mL and 33.5 mM
effect on cell viability / cytotoxicity [2]: without altering expression of housekeeping genes or being cytotoxic; also recorded: not associated with changes in cell viability
time to delivery to mouse blood cells and organs [3]: 30 to 60 min

CSCC[C@@H]1NC(=O)[C@H](CC(C)C)NC(=O)[C@H](CCCCN)NC(=O)[C@H](CCC(N)=O)NC(=O)[C@H](CCCNC(=N)N)NC(=O)[C@H](CCCCN)NC(=O)[C@H](CCCNC(=N)N)NC(=O)[C@H](CCC(N)=O)NC(=O)[C@H](C(C)C)NC(=O)[C@H](Cc2ccc(O)cc2)NC(=O)[C@@H](NC(=O)[C@@H]2CCCN2C(=O)[C@H](C)NC(=O)[C@H](CC(C)C)NC(=O)[C@H](CC(C)C)NC(=O)[C@H](C)NC(=O)[C@H](CC(C)C)NC(=O)[C@H](CC(C)C)NC(=O)[C@@H](NC(=O)[C@H](C)NC(=O)[C@@H]2CCCN2C(=O)[C@H](CC(C)C)NC(=O)[C@H](CC(C)C)NC(=O)[C@H](C)NC(=O)[C@@H](NC(=O)[C@H](C)NC(=O)[C@H](C)N)C(C)C)C(C)C)CSSC[C@@H](C(=O)O)NC(=O)[C@@H]2CCCN2C1=O [cSN50, reference compound] (H-AAVALLPAVLLALLAPCYVQRKRQKLMPC-OH; disulfide 17-29)
Solubility in Water [1]: 38 mg/mL and 12.1 mM
